Results published in ChEMBL document CHEMBL1201862, “PubChem BioAssay data set” (2004).
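These data come from cells grown in 96-well plates and exposed to compound for 48 hours at five concentrations. At the GI50, growth is halved.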 Activity calls are given as the source filed them. No stated cut-off is given here; in the data, active = GI50 up to about 1.1 µM and inactive = higher.

What was measured:
Assay in all cases: NCI anticancer screen, dose series, 48 h
K562 = test system: K562
MDA-MB-231 = test system: MDA-MB-231
MOLT-4 = test system: MOLT-4
UO-31 = test system: UO-31
NCI/ADR-RES = test system: NCI/ADR-RES
NCI-H522 = test system: NCI-H522
SF-268 = test system: SF-268
HOP-62 = test system: HOP-62
CCRF-CEM = test system: CCRF-CEM
OVCAR-3 = test system: OVCAR-3
A549 = test system: A549
NCI-H226 = test system: NCI-H226
TK-10 = test system: TK-10
SK-MEL-5 = test system: SK-MEL-5
SN12C = test system: SN12C
A498 = test system: A498
OVCAR-4 = test system: OVCAR-4
HCT-15 = test system: HCT-15
HCT-116 = test system: HCT-116
ACHN = test system: ACHN
HL-60 = test system: HL-60
786-0 = test system: 786-0
RXF 393 = test system: RXF 393
U-251 = test system: U-251
M14 = test system: M14
OVCAR-5 = test system: OVCAR-5
UACC-257 = test system: UACC-257
LOX IMVI = test system: LOX IMVI
CAKI-1 = test system: CAKI-1
MDA-MB-435 = test system: MDA-MB-435
MDA-N = test system: MDA-N
SF-539 = test system: SF-539
IGROV-1 = test system: IGROV-1
SK-MEL-28 = test system: SK-MEL-28
COLO 205 = test system: COLO 205
NCI-H23 = test system: NCI-H23
PC-3 = test system: PC-3
HT-29 = test system: HT-29
HOP-92 = test system: HOP-92
RPMI-8226 = test system: RPMI-8226
SNB-75 = test system: SNB-75
OVCAR-8 = test system: OVCAR-8
SNB-19 = test system: SNB-19
Hs-578T = test system: Hs-578T
Malme-3M = test system: Malme-3M
KM12 = test system: KM12
MCF7 = test system: MCF7
DU-145 = test system: DU-145
NCI-H460 = test system: NCI-H460
SF-295 = test system: SF-295
EKVX = test system: EKVX
SK-MEL-2 = test system: SK-MEL-2
SK-OV-3 = test system: SK-OV-3
T47D = test system: T47D
SR = test system: SR
HCC 2998 = test system: HCC 2998
SW-620 = test system: SW-620
UACC-62 = test system: UACC-62

With `O=[N+]([O-])c1cc(C2ON=C(c3ccccc3)N2C23CC4CC(CC(C4)C2)C3)ccc1Cl` (stereo not drawn) the GI50 (K562) was > 100 µM (inactive), the GI50 (MDA-MB-231) was > 100 µM (inactive) and the GI50 (MOLT-4) was > 100 µM (inactive). For the same molecule, the GI50 (UO-31) was > 100 µM (inactive), the GI50 (NCI/ADR-RES) was > 100 µM (inactive) and the GI50 (NCI-H522) was > 100 µM (inactive). For the same molecule, the GI50 (SF-268) was > 100 µM (inactive), the GI50 (HOP-62) was > 100 µM (inactive) and the GI50 (CCRF-CEM) was > 100 µM (inactive). For the same molecule, the GI50 (OVCAR-3) was > 100 µM (inactive), the GI50 (A549) was > 100 µM (inactive) and the GI50 (NCI-H226) was 49.5 µM (inactive). The GI50 (TK-10) was > 100 µM (inactive), the GI50 (SK-MEL-5) was > 100 µM (inactive) and the GI50 (SN12C) was > 100 µM (inactive). The GI50 (A498) was > 100 µM (inactive), the GI50 (OVCAR-4) was > 100 µM (inactive) and the GI50 (HCT-15) was over 100 µM. For the same molecule, the GI50 (HCT-116) was 73.5 µM (inactive), the GI50 (ACHN) was > 100 µM (inactive) and the GI50 (HL-60) was > 100 µM (inactive). For the same molecule, the GI50 (786-0) was > 100 µM (inactive), the GI50 (RXF 393) was > 100 µM (inactive) and the GI50 (U-251) was > 100 µM (inactive). For the same molecule, the GI50 (M14) was > 100 µM (inactive), the GI50 (OVCAR-5) was > 100 µM (inactive) and the GI50 (UACC-257) was > 100 µM (inactive). The GI50 (LOX IMVI) was > 100 µM (inactive), the GI50 (CAKI-1) was > 100 µM (inactive) and the GI50 (MDA-MB-435) was > 100 µM (inactive). The GI50 (MDA-N) was > 100 µM (inactive), the GI50 (SF-539) was > 100 µM (inactive) and the GI50 (IGROV-1) was > 100 µM (inactive). For the same molecule, the GI50 (SK-MEL-28) was > 100 µM (inactive), the GI50 (COLO 205) was > 100 µM (inactive) and the GI50 (NCI-H23) was > 100 µM (inactive). The GI50 (PC-3) was > 100 µM (inactive), the GI50 (HT-29) was > 100 µM (inactive) and the GI50 (HOP-92) was > 100 µM (inactive). The GI50 (RPMI-8226) was > 100 µM (inactive), the GI50 (SNB-75) was 15.5 µM (inactive) and the GI50 (OVCAR-8) was > 100 µM (inactive). The GI50 (SNB-19) was > 100 µM (inactive), the GI50 (Hs-578T) was > 100 µM (inactive) and the GI50 (Malme-3M) was > 100 µM (inactive). The GI50 (KM12) was > 100 µM (inactive), the GI50 (MCF7) was 2.74 µM (inactive) and the GI50 (DU-145) was > 100 µM (inactive). For the same molecule, the GI50 (NCI-H460) was > 100 µM (inactive), the GI50 (SF-295) was > 100 µM (inactive) and the GI50 (EKVX) was > 100 µM (inactive). The GI50 (SK-MEL-2) was > 100 µM (inactive), the GI50 (SK-OV-3) was > 100 µM (inactive) and the GI50 (T47D) was > 100 µM (inactive). For the same molecule, the GI50 (SR) was > 100 µM (inactive) and the GI50 (HCC 2998) was > 100 µM (inactive).

For `CC(NC1=NCCO1)c1ccco1` (stereo not drawn), the GI50 (K562) was > 100 µM (inactive), the GI50 (MDA-MB-231) was > 100 µM (inactive) and the GI50 (MOLT-4) was > 100 µM (inactive). The GI50 (UO-31) was > 100 µM (inactive), the GI50 (NCI/ADR-RES) was > 100 µM (inactive) and the GI50 (NCI-H522) was > 100 µM (inactive). For the same molecule, the GI50 (SF-268) was > 100 µM (inactive), the GI50 (HOP-62) was > 100 µM (inactive) and the GI50 (CCRF-CEM) was > 100 µM (inactive). For the same molecule, the GI50 (OVCAR-3) was > 100 µM (inactive), the GI50 (A549) was > 100 µM (inactive) and the GI50 (NCI-H226) was > 100 µM (inactive). The GI50 (TK-10) was > 100 µM (inactive), the GI50 (SK-MEL-5) was 86.9 µM (inactive) and the GI50 (SN12C) was > 100 µM (inactive). For the same molecule, the GI50 (A498) was > 100 µM (inactive), the GI50 (OVCAR-4) was > 100 µM (inactive) and the GI50 (HCT-15) was over 100 µM. The GI50 (SW-620) was > 100 µM (inactive), the GI50 (HCT-116) was > 100 µM (inactive) and the GI50 (ACHN) was > 100 µM (inactive). For the same molecule, the GI50 (HL-60) was > 100 µM (inactive), the GI50 (786-0) was > 100 µM (inactive) and the GI50 (RXF 393) was > 100 µM (inactive). The GI50 (U-251) was > 100 µM (inactive), the GI50 (M14) was > 100 µM (inactive) and the GI50 (OVCAR-5) was > 100 µM (inactive). For the same molecule, the GI50 (UACC-257) was > 100 µM (inactive), the GI50 (LOX IMVI) was > 100 µM (inactive) and the GI50 (CAKI-1) was > 100 µM (inactive). For the same molecule, the GI50 (MDA-MB-435) was > 100 µM (inactive), the GI50 (MDA-N) was 95.9 µM (inactive) and the GI50 (SF-539) was > 100 µM (inactive). For the same molecule, the GI50 (IGROV-1) was > 100 µM (inactive), the GI50 (SK-MEL-28) was > 100 µM (inactive) and the GI50 (COLO 205) was 79.8 µM (inactive). The GI50 (NCI-H23) was > 100 µM (inactive), the GI50 (PC-3) was > 100 µM (inactive) and the GI50 (HT-29) was 93.8 µM (inactive). The GI50 (HOP-92) was > 100 µM (inactive), the GI50 (RPMI-8226) was > 100 µM (inactive) and the GI50 (OVCAR-8) was > 100 µM (inactive). The GI50 (SNB-19) was > 100 µM (inactive), the GI50 (Hs-578T) was > 100 µM (inactive) and the GI50 (UACC-62) was > 100 µM (inactive). The GI50 (Malme-3M) was > 100 µM (inactive), the GI50 (KM12) was 20.3 µM (inactive) and the GI50 (MCF7) was > 100 µM (inactive). For the same molecule, the GI50 (DU-145) was > 100 µM (inactive), the GI50 (NCI-H460) was > 100 µM (inactive) and the GI50 (SF-295) was > 100 µM (inactive). The GI50 (EKVX) was > 100 µM (inactive), the GI50 (SK-MEL-2) was 60.4 µM (inactive) and the GI50 (SK-OV-3) was > 100 µM (inactive). The GI50 (T47D) was > 100 µM (inactive), the GI50 (SR) was 75.9 µM (inactive) and the GI50 (HCC 2998) was > 100 µM (inactive).
